From patent US10653691B2, “Method of promoting remyelination” (Case Western Reserve University, priority 2013, dated 2020)

How the values were obtained:
[1] = test system: mouse epiblast stem cell (EpiSC)-derived OPCs; assay: Primary in vitro phenotypic screen of OPCs (MBP process length and intensity, high content imaging); format: cell-based; conditions: 5 μM, 72 h, 727 drugs
Method: For the primary screen, OPCs were treated with vehicle alone (0.05% (v/v)DMSO) as a negative control, thyroid hormone (a known OPC differentiation inducer) as a positive control, or drug dissolved in DMSO at a concentration of 5 μM. After 72 h, cells were fixed and labeled with antibodies to myelin basic protein (MBP) and the length and intensity of MBP labeled oligodendrocyte processes measured (FIG. 1A). These features were reliable indicators of alteration in cellular phenotype, as indicated by consistency and high signal to background ratio of positive and vehicle controls across all screening plates (FIG. 5D-G). […] On the basis of this analysis, we identified the 22 drugs that enhanced oligodendrocyte formation greater than five standard deviations above DMSO treatment and outperformed thyroid hormone in the measured parameters (FIG. 1B).
EpiSC-derived OPCs were seeded onto poly-D-lysine 96-well Viewplate or CellCarrier plates (PerkinElmer) coated with laminin (Sigma, L2020; 10 μgml^−1) using electronic multichannel pipetors. […] All plates for the primary screen were processed and analyzed simultaneously to eliminate variability.
For the 5 μM in vitro screen, stained plates were imaged on the Opera confocal imaging system (PerkinElmer) and a set of 24×10 fields were collected from each well, resulting in an average of 10,000 cells being scored per well. […]

ERK1/2 = assay: Western blot of ERK1/2 phosphorylation in OPCs; format: cell-based, mouse; conditions: for induction of ERK1/2 phosphorylation in OPCs: OPCs treated for 1 h
Method: EpiSC-derived OPCs were seeded into poly-Lornithine/laminin coated six-well plates and allowed to attach for 2 h in DMEM/F12 without additional factors. Cells were treated with indicated inhibitors or DMSO for 1 h-SCH772984 (ChemieTek, […]), SB590885 (Tocris, 10 nM), LY294002 (Tocris, 10 μM), and PD0325901 (Stemgent, 1 μM). Cells were then stimulated with drug or FGF2 (R&DSystems; 20 ng ml^−1) for 1 h and then lysed in 200 μL RIPA buffer (0.15 M NaCl, 0.05M Tris, pH=8.0, 1 mM EDTA, 1% Triton X-100, 0.1% SDS, 10% glycerol, HALT protease and phosphatase inhibitor (Thermo Fisher) added just before use) and incubated on ice for 20 min. Lysates were centrifuged at 4° C. and supernatant collected. Protein concentrations were determined by Pierce BCA protein assay kit (Thermo Fisher). Equal amounts of protein were resolved in a reduced manner on NuPAGE 4-12% Bis-Tris gels (Life Technologies) and transferred onto PVDF membranes (Life Technologies). Blots were blocked in either 5% BSA (phosphoprotein) or 5% milk (non phosphoprotein). Primary antibodies were all from the same vendor (Cell Signaling) and included phospho-Erk1/2 (4370S, clone D13.14.4E; 1:2,000), ERK1/2 (9107S, clone 3A7; 1:2,000), phospho-glucocorticoid receptor (4161S; 1:1,000), and glucocorticoid receptor (12041, clone D6H2L; 1:1,000) followed by incubation with HRP-conjugated secondary antibodies and chemiluminescent enhancement by West Pico substrate (Thermo Fisher).

MOG35-55 EAE mouse model = assay: MOG35-55 chronic progressive EAE model
Method: Immunohistochemistry was performed as previously described. In short, tissue sections or whole slices were washed three times in PBS, blocked in PBS containing Triton X-100 (0.1%) and normal donkey serum (NDS, 2% for sections and 10% for cerebellar slices) and incubated with primary antibody overnight. For MBP immunohistochemistry, the primary antibody solution consisted of 2% NDS, 2% bovine serum albumin, and 0.1% saponin. For all other antibodies, the primary antibody solution consisted of 2% NDS and 0.1% Triton X-100. Primary antibodies used included rat anti-MBP (Abcam, ab7349; 1:100), mouse anti-APC CC1 clone (Millipore, MABC200; 1:500), and rabbit anti-IBA1 (Wako Chemicals, 019-19741; 1:1,000). The tissue was then washed in PBS and incubated in secondary antibodies for […]. Secondary detection was performed with Alexa Fluor-conjugated secondary antibodies (1:500) for 1 h. Luxol fast blue staining was performed as previously described.
Samples were processed as previously described. In short, samples were osmicated, stained en bloc with uranyl acetate, and embedded in EMbed 812, an Epon-812 substitute (EMS). Sections (1 μm) were cut and stained with toluidine blue and visualized on a light microscope (Leica DM5500B). Additional thin sections were cut, carbon coated and imaged either on a JEOL JEM-1200-EX electron microscope or a T12 electron microscope (FEI).
EAE was induced by immunizing 10-week-old C57BL/6 female mice with […] injection of […] complete Freund's adjuvant emulsion (Hooke Laboratories). One hour after immunization, mice were given 100 ng of pertussis toxin by 100 μl intraperitoneal injection. A second dose of pertussis toxin was administered the next day. EAE onset was monitored daily and scored using a clinical scale where 0 represented no abnormality; 1, limp tail; 2, limp tail and hind limb weakness; 3, hind limb paralysis; 4, hind limb paralysis and forelimb weakness; and 5, moribund. […] Once mice reached peak of disease ˜day 15; clinical score=3) they were randomized into treatment groups, and drug or vehicle (DMSO in saline) was administered intraperitoneally daily for 10 days (n=12-16 mice per group). […] Experimenters were blinded to the identity of the treatments and animals were scored daily. Cumulative disease scores for each animal were calculated during the treatment period, and a two-tailed t-test compared drug—with vehicle-treated groups. The extent of recovery for each animal was calculated as the difference between the peak disease score and the score at the end of each experiment, and a two-tailed t-test was used to compare each treatment with vehicle. External validation of MOG35-55 EAE experiments (n=12 mice per group) was performed at Hooke Laboratories with experimenters blinded to the identity of the substances.

mouse OPCs = assay: OPC differentiation into MBP+ oligodendrocytes; format: cell-based; conditions: 72 h, seven doses 0.01-6.7 μM
Method: EpiSC-derived OPCs were seeded onto poly-D-lysine 96-well Viewplate or CellCarrier plates (PerkinElmer) coated with laminin (Sigma, L2020; 10 μgml^−1) using electronic multichannel pipetors. For the primary screen, 30,000 cells were seeded per well in screening medium (DMEM/F12 supplemented with N2 (R&D Systems), B-27 (Life Technologies), neurotrophin 3 (R&D Systems; 10 ng ml^−1), cAMP (Sigma; 50 μM), IGF-1 (R&D Systems; 100 ng ml^−1), noggin (R&D Systems; 100 ngml^−1)) and allowed to attach for 2 h before addition of drug. NIH Clinical Collection I and II drugs were added to assay plates with 0.1 ml pin replicators (Molecular Devices, Genetix; X5051), resulting in a final primary screening concentration of 5 μM. Thyroid-hormone-positive controls and DMSO vehicle controls were included in each assay plate. Cells were incubated under standard conditions (37° C., 5% CO2) for 3 days and fixed with 4% paraformaldehyde (PFA) in phosphate buffered saline (PBS). Fixed plates were permeabilized with 0.1% Triton X-100 and blocked with 10% donkey serum (v/v) in PBS for 2 h. Cells were labelled with MBP antibodies (Abcam, ab7349; 1:100) for 1 h at room temperature (˜22° C.) followed by detection with Alexa Fluorconjugated secondary antibodies (1:500) for 45 min. Nuclei were visualized by DAPI staining (Sigma; 1 μgml^−). All plates for the primary screen were processed and analyzed simultaneously to eliminate variability.
For the 5 μM in vitro screen, stained plates were imaged on the Opera confocal imaging system (PerkinElmer) and a set of 24×10 fields were collected from each well, resulting in an average of 10,000 cells being scored per well. For the dose-response (6.7 μM, 5 μM, 3.3 μM, 1.7 μM, 666 nM, 500 nM, and 333 nM) in vitro assays, plates were imaged on the Operetta High Content Imaging and Analysis system (PerkinElmer) and a set of 14×20 fields captured from each well resulting in an average of 3,300 cells being scored per well. […] Each traced nucleus region was then expanded by 50% and cross-referenced with the mature myelin protein (MBP or PLP1) stain to identify oligodendrocyte nuclei, and from this the percentage of oligodendrocytes was calculated. Processes emanating from oligodendrocyte nuclei were identified using the CSIRO2 analysis module within a custom Acapella script. Maximum mean process length (denoted ‘process length’) and mean process intensity (denoted ‘process intensity’) were generated on a per well basis. For the 5 μM in vitro screen, values were calculated and normalized to 100 for thyroid hormone (positive control)-treated wells and to 0 for DMSO(vehicle)-treated wells, on a per plate basis.

SMILES	hit status / activity in the primary screen (MBP process length and intensity) [1]	induction of ERK1/2 phosphorylation in OPCs (ERK1/2)	also measured
COc1cc2c(cc1OC)C(=O)C(CC1CCN(Cc3ccccc3)CC1)C2 (centres unmarked) [Donepezil]	identified in the primary screen		
O=C(NOC[C@H](O)CO)c1ccc(F)c(F)c1Nc1ccc(I)cc1F [PD0325901]			block of miconazole-induced ERK1/2 phosphorylation (ERK1/2; OPCs, inhibitor 1 μM for 1 h, then miconazole): blocked the ability of miconazole to induce ERK1/2 phosphorylation
CN1[C@@H]2CC[C@H]1C[C@@H](OC(c1ccccc1)c1ccccc1)C2 [benztropine]	one of the top 22 drugs	did not induce ERK1/2 phosphorylation	areas of myelin disruption in the white matter (luxol fast blue, MBP immunohistochemistry) (MOG35-55 EAE mouse model; cervical spinal cords): decrease in areas of myelin disruption in the white matter; functional improvement (disease score) (MOG35-55 EAE mouse model; daily i.p. for 10 days from peak of disease, miconazole 10 mg/kg, clobetasol 2 mg/kg, benztropine 10 mg/kg): functional improvement, but to a lesser extent than miconazole and clobetasol
C[C@@H](c1ncncc1F)[C@](O)(Cn1cncn1)c1ccc(F)cc1F [voriconazole]		failed to induce changes in ERK1/2 phosphorylation	differentiation of OPCs into oligodendrocytes (mouse OPCs): did not promote the differentiation of OPCs into oligodendrocytes
